System: 3-NT levels in PFC of NVHL rats
Test: 3-Nitrotyrosine (3-NT) labeling in adult PFC of NVHL rats
Format: in vivo, Sprague-Dawley rats
Conditions: P61 NVHL rats, juvenile treatment
Excerpt: To assess oxidative stress, DNA oxidation with 8-oxo-7,8-dihydro-20-deoxyguanine (8-oxo-dG) labeling was quantified. […] 3-NT indicates nitration of proteins due to oxidative and nitrosative stress (Radi, 2004), and its increase in NVHL rats was prevented by NAC treatment during development (as shown in FIGS. 9A and 9B). […] A possible explanation for the levels of oxidative stress detected in the adult PFC following an NVHL is the reduced glutamatergic input from ventral hippocampus during development, as blocking NMDA receptors induces oxidative stress in PVI (Behrens et al., 2007).
Antioxidant pretreatment regimen: NAC (BioAdvantexPharma, Mississauga, Ontario, Canada) was administered in the drinking water at 900 mg/l. NAC treatment started at P5 or at P35, and previous work in mice has shown that NAC consumed by the dam is transmitted to the pups through her milk (das Neves Duarte et al., 2012). NAC treatment ended at P50. Fresh solutions were prepared every 2-3 days. Ebselen (Sound Pharmaceuticals Inc., Seattle, WA) was administered i.p. 5 days a week starting at P35 until the day of PPI testing (P60). Stock ebselen solution (20 mg/ml DMSO, frozen aliquots) was diluted 1:5 in sterile water and administered at a dose of 10 mg/kg. Control animals received an equivalent concentration of DMSO diluted 1:5 in water. […]

CC(=O)N[C@@H](CS)C(=O)O [NAC, N-acetyl cysteine]
effect on increase in 3-NT labeling in PFC: prevented
